# According to PMC9959553, “Promising Antifungal Molecules against Mucormycosis Agents Identified from Pandemic Response Box®: In Vitro and In Silico Analyses” (Journal of Fungi, 2023):
# Read-outs that look alike come from different tables or passages of the source.
# Columns and labels:
# [1] = tested on: R. oryzae, R. microsporus and R. stolonifer; assay: Antifungal susceptibility testing, values stated over the three species; format: cell-based; settings: over the three Rhizopus species
# Experimental: (§1) The susceptibility of the Rhizopus species to MMV396785 (alexidine), MMV1580844, MMV642550 and MMV019724 was determined using the broth microdilution method, according to EUCAST protocols, with modifications. Posaconazole and amphotericin B were also used as reference antifungal drugs because they are commonly used for the treatment of mucormycosis. […] A standardized suspension of conidia (2 × 10^5/mL) was added to the wells and incubated for 48 h at 37 °C, in a 5% CO2 atmosphere. Fungal growth was analyzed via spectrophotometry readings at 600 nm and cell viability was assessed using the XTT reduction assay. Minimum inhibitory concentration (MIC) of each compound was defined as the lowest concentration that inhibits 50% of fungal growth, because these fungi are highly resistant to antifungal drugs and a reduction in half of their growth is relevant. […] MFC values were defined as the lowest drug concentration able to arrest fungal growth.
# [2] = Cytotoxicity assay (neutral red); format: cell-based, murine; settings: mouse, RAW 264.7 macrophage cells
# Experimental: (§2) Cytotoxicity of alexidine, MMV1580844, MMV642550 and MMV019724 was performed using three cell lineages: RAW 264.7, a murine macrophage culture; A549, adenocarcinomic human alveolar basal epithelial cells; and HaCaT, a spontaneously transformed aneuploid immortal keratinocyte cell line from adult human skin. Cells were grown in DMEM (Dulbecco’s Modified Eagle’s Medium, Sigma-Aldrich, MO, USA), supplemented with 10% fetal bovine serum and incubated for 48 h at 37 °C with 5% CO2 in the presence of serially diluted concentrations (0.3–50 μM) of each compound. Cell viability was measured using the neutral red (NR) assay and quantified using a spectrophotometer at 595 nm (SpectraMax® i3x, Molecular Devices®, San José, CA, USA).
# [3] = tested on: R. stolonifer; assay: Antifungal susceptibility testing (broth microdilution, MIC and MFC); format: cell-based, Rhizopus stolonifer; settings: for Selectivity Index (SI), Planktonic Cell: R. stolonifer, from CC50 and MIC50 of planktonic cells; for MIC50 / MFC: Rhizopus stolonifer, 48 h; for MIC50: lowest concentration that inhibits 50% of fungal growth; for MFC: subculture in drug-free medium
# Experimental: as §1
# [4] = tested on: R. oryzae UCP1295; assay: Screening of the Pandemic Response Box library at 5 µM; format: cell-based, Rhizopus oryzae; settings: for inhibition at 5 µM: Rhizopus arrhizus, UCP1295, 48 h; for Viability Inhibition (XTT): XTT reduction
# Method in brief: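 Growth inhibition was read at 600 nm after conidia (2 × 10^5/mL) grew 48 h at 37 °C, 5% CO2, with 5 μM compound in glucose-supplemented (2%), MOPS-buffered RPMI (pH 7.2). Controls were posaconazole at 5 μM and 1% DMSO. The selection cut-off was at least 60% inhibition.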
# [5] = Cytotoxicity assay (neutral red); format: cell-based; settings: human
# Experimental: as §2
# [6] = tested on: R. oryzae UCP1295; assay: Antifungal drug synergy assay, checkerboard method (FICI); format: cell-based, Rhizopus oryzae; settings: Rhizopus arrhizus, UCP1295, 48 h; drug alone; read-out: MIC50 Alone
# Experimental: Synergistic interactions were evaluated using the checkerboard method according to EUCAST guidelines (EUCAST 2008). R. oryzae conidia (2 × 10^5/mL) were grown in 96-well plates containing supplemented RPMI in the presence of the following selected compounds: […] An inhibition of at least 50% was defined as the cut-off for minimum inhibitory concentration (MIC). Interactions were determined by the fractional inhibitory concentration index (FICI), which was calculated using the following formula: (MIC combined/MIC drug A alone) + (MIC combined/MIC drug B alone). […] The Bliss independence model calculation was performed according to […] colleagues and Zhao and colleagues. The following formula was used to assess drug interaction: […] The results were classified as follows: synergistic effect when Eobs > Eexp; indifference when Eobs = Eexp; antagonistic effect when Eobs < Eexp.
# [7] = tested on: R. stolonifer preformed biofilm; assay: Preformed biofilm assay; format: cell-based, Rhizopus stolonifer; settings: for Selectivity Index (SI), Preformed Biofilm: R. stolonifer, based on biofilm viability parameter
# Experimental: For the preformed biofilm assay, cells were cultured as described above in the absence of the compounds. […] An additional incubation of 24 h at 37 °C was performed to evaluate the anti-biofilm activity. Evaluation of both biofilm formation and preformed biofilms was performed using three parameters as previously described. Crystal violet, safranin and XTT assays were used to analyze the overall biomass, extracellular matrix and metabolic activity, respectively.
# [8] = tested on: R. oryzae; assay: Antifungal susceptibility testing (broth microdilution, MIC and MFC); format: cell-based, Rhizopus oryzae; settings: for Selectivity Index (SI), Planktonic Cell: R. oryzae, from CC50 and MIC50 of planktonic cells; for MIC50 / MFC: Rhizopus arrhizus, 48 h; for MIC50: lowest concentration that inhibits 50% of fungal growth; for MFC: subculture in drug-free medium
# Experimental: as §1
# [9] = Table S1, mean of the four values, read-out: % of growth inhibition, Mean
# [10] = optical density 600 nm, read-out: Growth Inhibition
# [11] = A549 alveolar basal epithelial cells, A549, 48 h
MIC [1],MIC50 [3],MIC [6],MIC50 [8],Structure (SMILES),CC50 at 48 h [2],MFC [3],"inhibition at 5 µM [4, 9]","inhibition at 5 µM [4, 10]",Viability Inhibition (XTT) [4],"CC50 at 48 h [5, 11]",CC50 at 48 h ([5]; HaCaT keratinocyte cells),MFC [8],"Selectivity Index (SI), Planktonic Cell [3]","Selectivity Index (SI), Preformed Biofilm [7]","Selectivity Index (SI), Planktonic Cell [8]",also measured
0.63 to 1.25 µM,0.63 µM,1.25 µM,1.25 µM,"CCCCC(CC)CNC(=N)NC(=N)NCCCCCCNC(=N)NC(=N)NCC(CC)CCCC (stereo not drawn) [MMV396785, Alexidine, reference compound]",> 50 µM,10 µM,70.1%,70%,89%,> 50 µM,> 50 µM,10 µM,–,–,–,"MFC [1]: 1.25 to 10 µM; Selectivity Index (SI), Planktonic Cell ([3]; listed as Alexidina MMV396785): >79.4; Viability Inhibition (XTT) ([4]; listed as alexidine): about 89%; Selectivity Index (SI), Preformed Biofilm ([7]; listed as Alexidina MMV396785): >20; concentration giving significant decrease in biofilm parameters ([7]; preformed biofilm, 24 h treatment): 4 × MIC; Selectivity Index (SI), Planktonic Cell ([8]; listed as Alexidina MMV396785): >40"
0.63 to 1.25 µM,1.25 µM,0.63 µM,0.63 µM,Oc1c(C(Nc2nc3ccccc3s2)c2ccc(OC(F)F)cc2)ccc2cccnc12 (stereo not drawn) [MMV019724],> 50 µM,> 20 µM,69.6%,70%,77%,> 50 µM,> 50 µM,> 20 µM,>40,>40,>79.4,–

Structure (SMILES),MIC [1],MIC50 [3],MIC [6],MIC50 [8],CC50 at 48 h [2],MFC [3],"inhibition at 5 µM [4, 9]","inhibition at 5 µM [4, 10]",Viability Inhibition (XTT) [4],"CC50 at 48 h [5, 11]",CC50 at 48 h ([5]; HaCaT keratinocyte cells),MFC [8],"Selectivity Index (SI), Planktonic Cell [3]","Selectivity Index (SI), Preformed Biofilm [7]","Selectivity Index (SI), Planktonic Cell [8]",also measured
CCc1nc(N)nc(N)c1C#CC(C)c1cc(OC)cc(-c2ccncc2)c1 (stereo not drawn) [MMV1580844],0.08 µM,0.08 µM,0.08 µM,0.08 µM,> 50 µM,> 20 µM,70.2%,71%,88%,> 50 µM,> 50 µM,> 20 µM,>625,>312.5,>625,–
